According to ChEMBL document CHEMBL3120056 (Eur J Med Chem, 2014):
pIC50: −log10 of the molar value. Each block holds one molecule with its values, some of them ahead of it. The source made the active and inactive calls. The calls are words filed in the database; no cut-off is given here.

Legend:
Format in all cases: cell-based
[1] = molecular target: T1, Somatostatin receptor type 2 (Homo sapiens, UniProt P30874); test: Agonist activity at T7-epitope-tagged human SST2A receptor expressed in HEK293 cells assessed as stimulation of receptor internalization at 1 uM after 30 mins by immunofluorescence microscopic analysis
[2] = molecular target: Somatostatin receptor type 5 (Homo sapiens, UniProt P35346); test: Displacement of [125I]-[LTT]-SS28 from human SST5 receptor expressed in HEK293 cells after 2 hrs by autoradiographic analysis
[3] = molecular target: Somatostatin receptor type 4 (Homo sapiens, UniProt P31391); test: Displacement of [125I]-[LTT]-SS28 from human SST4 receptor expressed in Chinese hamster CCL-39 cells after 2 hrs by autoradiographic analysis
[4] = molecular target: Somatostatin receptor type 3 (Homo sapiens, UniProt P32745); test: Displacement of [125I]-[LTT]-SS28 from human SST3 receptor expressed in Chinese hamster CCL-39 cells after 2 hrs by autoradiographic analysis
[5] = molecular target: T1, Somatostatin receptor type 2; test: Displacement of [125I]-[LTT]-SS28 from human SST2 receptor expressed in Chinese hamster CCL-39 cells after 2 hrs by autoradiographic analysis
[6] = molecular target: Somatostatin receptor type 1 (Homo sapiens, UniProt P30872); test: Displacement of [125I]-[LTT]-SS28 from human SST1 receptor expressed in CHO cells after 2 hrs by autoradiographic analysis
Somatostatin receptor type 1, sequence (P30872 whole entry): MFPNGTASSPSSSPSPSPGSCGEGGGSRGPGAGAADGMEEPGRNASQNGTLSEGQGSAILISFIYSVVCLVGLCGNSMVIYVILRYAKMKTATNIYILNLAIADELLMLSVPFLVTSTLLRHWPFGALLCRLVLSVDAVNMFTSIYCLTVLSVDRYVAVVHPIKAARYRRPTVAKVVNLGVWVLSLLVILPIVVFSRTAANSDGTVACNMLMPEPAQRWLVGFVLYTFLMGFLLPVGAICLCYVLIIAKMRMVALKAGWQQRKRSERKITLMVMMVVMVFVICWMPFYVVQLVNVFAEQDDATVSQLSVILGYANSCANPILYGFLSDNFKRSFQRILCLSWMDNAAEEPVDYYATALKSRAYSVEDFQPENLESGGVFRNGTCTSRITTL

Somatostatin receptor type 5, sequence (P35346 whole entry): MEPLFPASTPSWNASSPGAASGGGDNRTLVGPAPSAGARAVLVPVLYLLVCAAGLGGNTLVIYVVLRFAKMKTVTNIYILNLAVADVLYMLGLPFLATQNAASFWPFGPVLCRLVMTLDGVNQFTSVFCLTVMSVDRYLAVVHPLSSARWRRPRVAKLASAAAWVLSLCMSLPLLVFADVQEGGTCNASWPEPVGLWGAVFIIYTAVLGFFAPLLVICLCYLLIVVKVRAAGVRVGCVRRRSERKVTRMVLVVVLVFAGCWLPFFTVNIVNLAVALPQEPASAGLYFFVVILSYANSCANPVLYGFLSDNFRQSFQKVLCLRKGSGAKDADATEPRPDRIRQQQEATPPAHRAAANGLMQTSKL
Somatostatin receptor type 4, sequence (P31391 whole entry): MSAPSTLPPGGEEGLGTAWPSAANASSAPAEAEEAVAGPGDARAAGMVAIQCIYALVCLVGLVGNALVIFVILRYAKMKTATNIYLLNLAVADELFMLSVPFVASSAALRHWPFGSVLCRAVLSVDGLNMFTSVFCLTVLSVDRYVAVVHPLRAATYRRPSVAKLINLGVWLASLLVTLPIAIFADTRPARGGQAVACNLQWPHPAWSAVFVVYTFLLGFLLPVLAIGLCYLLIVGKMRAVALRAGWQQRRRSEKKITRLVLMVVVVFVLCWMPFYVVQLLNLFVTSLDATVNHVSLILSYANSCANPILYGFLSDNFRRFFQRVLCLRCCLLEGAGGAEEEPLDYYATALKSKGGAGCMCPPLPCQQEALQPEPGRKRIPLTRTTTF
Somatostatin receptor type 3, sequence (P32745 whole entry): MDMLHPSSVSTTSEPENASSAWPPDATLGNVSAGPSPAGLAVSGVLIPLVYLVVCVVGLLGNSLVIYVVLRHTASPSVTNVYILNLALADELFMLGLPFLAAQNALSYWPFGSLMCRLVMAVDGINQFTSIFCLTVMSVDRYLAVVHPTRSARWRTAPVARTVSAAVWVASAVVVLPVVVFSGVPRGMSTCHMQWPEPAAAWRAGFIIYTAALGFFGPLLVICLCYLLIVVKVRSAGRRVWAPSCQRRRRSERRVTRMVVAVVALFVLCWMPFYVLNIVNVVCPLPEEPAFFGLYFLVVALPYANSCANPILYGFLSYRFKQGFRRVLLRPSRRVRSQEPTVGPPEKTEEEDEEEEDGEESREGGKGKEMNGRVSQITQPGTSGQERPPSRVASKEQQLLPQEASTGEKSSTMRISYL
T1 sequence (P30874 whole entry): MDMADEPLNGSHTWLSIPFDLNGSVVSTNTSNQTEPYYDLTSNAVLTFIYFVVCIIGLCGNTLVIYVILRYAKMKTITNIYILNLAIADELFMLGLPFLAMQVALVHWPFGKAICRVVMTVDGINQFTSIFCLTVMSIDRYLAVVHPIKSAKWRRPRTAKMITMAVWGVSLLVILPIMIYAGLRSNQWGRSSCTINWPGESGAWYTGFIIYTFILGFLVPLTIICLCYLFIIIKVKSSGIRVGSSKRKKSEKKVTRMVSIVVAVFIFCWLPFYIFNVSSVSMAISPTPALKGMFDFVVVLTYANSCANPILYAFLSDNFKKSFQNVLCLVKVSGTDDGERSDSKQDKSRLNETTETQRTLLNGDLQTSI

Structure (SMILES): C[C@@H](O)[C@@H]1NC(=O)[C@H](CCCCN)NC(=O)[C@@H](Cc2c[nH]c3ccccc23)NC(=O)[C@H](Cc2ccccc2)NC(=O)[C@H](Cc2ccccc2)NC(=O)[C@@H](NC(=O)CNC(=O)COCCOCCNC(=O)CN2CCN(CC(=O)O)CCN(CC(=O)O)CCN(CC(=O)O)CC2)CSSC[C@@H](C(=O)O)NC(=O)[C@H](CO)NC(=O)[C@H](Cc2ccccc2)NC1=O
Activity [1]: Active
pIC50 [2]: 7.24
pIC50 [3]: 8.92
pIC50 [4]: 7.74
pIC50 [5]: 9.00
pIC50 [6]: 6.10

Structure (SMILES): CCCC[C@H](NC(=O)CNC(=O)[C@H](C)NC(=O)CN1CCN(CC(=O)O)CCN(CC(=O)O)CCN(CC(=O)O)CC1)C(=O)N[C@@H](CCCCN)C(=O)N[C@@H]1CSSC[C@@H](C(=O)N[C@@H](CO)C(=O)NCC(=O)O)NC(=O)[C@H](Cc2ccccc2)NC(=O)[C@H]([C@@H](C)O)NC(=O)[C@H](CCCCN)NC(=O)[C@@H](Cc2c[nH]c3ccccc23)NC(=O)[C@H](Cc2ccccc2)NC(=O)[C@H](Cc2ccccc2)NC1=O
Activity [1]: inactive
pIC50 [2]: 7.43
pIC50 [3]: 8.27
pIC50 [4]: 7.01
pIC50 [5]: 7.30
pIC50 [6]: 7.74

Structure (SMILES): CCCC[C@H](NC(=O)CNC(=O)[C@H](C)NC(=O)CN1CCN(CC(=O)O)CCN(CC(=O)O)CCN(CC(=O)O)CC1)C(=O)N[C@@H](CCCCN)C(=O)N[C@@H](CC(N)=O)C(=O)N[C@H]1CSSC[C@@H](C(=O)N[C@H](C(=O)N[C@@H](CO)C(=O)NCC(=O)O)[C@@H](C)O)NC(=O)[C@H]([C@@H](C)O)NC(=O)[C@H](CCCCN)NC(=O)[C@@H](Cc2c[nH]c3ccccc23)NC(=O)[C@H](Cc2ccccc2)NC1=O
Activity [1]: inactive
pIC50 [2]: < 6.00
pIC50 [3]: < 6.00
pIC50 [4]: < 6.00
pIC50 [5]: < 6.00
pIC50 [6]: < 6.00

Structure (SMILES): CCCC[C@H](NC(=O)CNC(=O)[C@H](C)NC(=O)CN1CCN(CC(=O)O)CCN(CC(=O)O)CCN(CC(=O)O)CC1)C(=O)N[C@@H](CCCCN)C(=O)N[C@@H](CC(N)=O)C(=O)N[C@H]1CSSC[C@@H](C(=O)N[C@H](C(=O)N[C@@H](CO)C(=O)NCC(=O)O)[C@@H](C)O)NC(=O)[C@H]([C@@H](C)O)NC(=O)[C@H](CCCCN)NC(=O)[C@@H](Cc2c[nH]c3ccccc23)NC(=O)[C@H](Cc2ccc(O)cc2)NC1=O
Activity [1]: inactive
pIC50 [2]: < 6.00
pIC50 [3]: < 6.00
pIC50 [4]: < 6.00
pIC50 [5]: 6.02
pIC50 [6]: < 6.00

Second part, the molecule after the results:

Activity [1]: Active
pIC50 [2]: 7.80
pIC50 [3]: 9.05
pIC50 [4]: 7.62
pIC50 [5]: 9.12
pIC50 [6]: 6.77
Structure (SMILES): C[C@@H](O)[C@@H]1NC(=O)[C@H](CCCCN)NC(=O)[C@@H](Cc2c[nH]c3ccccc23)NC(=O)[C@H](Cc2ccccc2)NC(=O)[C@H](Cc2ccccc2)NC(=O)[C@@H](NC(=O)[C@H](CCCNC(=N)N)NC(=O)COCCOCCNC(=O)CN2CCN(CC(=O)O)CCN(CC(=O)O)CCN(CC(=O)O)CC2)CSSC[C@@H](C(=O)O)NC(=O)[C@H](CO)NC(=O)[C@H](Cc2ccccc2)NC1=O

Activity [1]: Active
pIC50 [2]: 7.60
pIC50 [3]: 8.55
pIC50 [4]: 7.80
pIC50 [5]: 8.80
pIC50 [6]: 7.42
Structure (SMILES): C[C@H](NC(=O)CN1CCN(CC(=O)O)CCN(CC(=O)O)CCN(CC(=O)O)CC1)C(=O)NCC(=O)N[C@H]1CSSC[C@H](C(=O)O)NC(=O)[C@H](CO)NC(=O)[C@H]([C@@H](C)O)NC(=O)[C@H](Cc2ccccc2)NC(=O)[C@H]([C@@H](C)O)NC(=O)[C@H](CCCCN)NC(=O)[C@@H](Cc2c[nH]c3ccccc23)NC(=O)[C@H](Cc2ccccc2)NC(=O)[C@H](Cc2ccccc2)NC(=O)[C@H](CC(N)=O)NC(=O)[C@H](CCCNC(=N)N)NC1=O

Activity [1]: Active
pIC50 [2]: 7.30
pIC50 [3]: 8.40
pIC50 [4]: 7.80
pIC50 [5]: 7.96
pIC50 [6]: 7.48
Structure (SMILES): CCCC[C@H](NC(=O)CNC(=O)[C@H](C)NC(=O)CN1CCN(CC(=O)O)CCN(CC(=O)O)CCN(CC(=O)O)CC1)C(=O)N[C@@H](CCCCN)C(=O)N[C@H]1CSSC[C@@H](C(=O)N[C@@H](CO)C(=O)NCC(=O)O)NC(=O)[C@H](Cc2ccccc2)NC(=O)[C@H]([C@@H](C)O)NC(=O)[C@H](CCCCN)NC(=O)[C@@H](Cc2c[nH]c3ccccc23)NC(=O)[C@H](Cc2ccccc2)NC(=O)[C@H](Cc2ccccc2)NC1=O
